Assay results taken from patent US20240254119A1 (THIRD HARMONIC BIO, INC., priority 2022, published 2024).
pIC50: −log10 of the molar value.

Biological target: T1, CSF-1R (Homo sapiens, UniProt P07333)
T1 construct: purchased Invitrogen PV3249 (lot 662393N)
Assay: Caliper biochemical assay, CSF-1R
Conditions: Table 6
How it was run: (§1)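 Mobility-shift readout: after EDTA quench, fluorescent peptide and product are resolved electrophoretically on a LabChip and measured by fluorescence. Reactions contain enzyme, carboxyfluorescein peptide, ATP, Mn^2+ and compound, run 3 h at 25° C; 100% inhibition control lacks enzyme.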

T1 sequence (P07333 20-972): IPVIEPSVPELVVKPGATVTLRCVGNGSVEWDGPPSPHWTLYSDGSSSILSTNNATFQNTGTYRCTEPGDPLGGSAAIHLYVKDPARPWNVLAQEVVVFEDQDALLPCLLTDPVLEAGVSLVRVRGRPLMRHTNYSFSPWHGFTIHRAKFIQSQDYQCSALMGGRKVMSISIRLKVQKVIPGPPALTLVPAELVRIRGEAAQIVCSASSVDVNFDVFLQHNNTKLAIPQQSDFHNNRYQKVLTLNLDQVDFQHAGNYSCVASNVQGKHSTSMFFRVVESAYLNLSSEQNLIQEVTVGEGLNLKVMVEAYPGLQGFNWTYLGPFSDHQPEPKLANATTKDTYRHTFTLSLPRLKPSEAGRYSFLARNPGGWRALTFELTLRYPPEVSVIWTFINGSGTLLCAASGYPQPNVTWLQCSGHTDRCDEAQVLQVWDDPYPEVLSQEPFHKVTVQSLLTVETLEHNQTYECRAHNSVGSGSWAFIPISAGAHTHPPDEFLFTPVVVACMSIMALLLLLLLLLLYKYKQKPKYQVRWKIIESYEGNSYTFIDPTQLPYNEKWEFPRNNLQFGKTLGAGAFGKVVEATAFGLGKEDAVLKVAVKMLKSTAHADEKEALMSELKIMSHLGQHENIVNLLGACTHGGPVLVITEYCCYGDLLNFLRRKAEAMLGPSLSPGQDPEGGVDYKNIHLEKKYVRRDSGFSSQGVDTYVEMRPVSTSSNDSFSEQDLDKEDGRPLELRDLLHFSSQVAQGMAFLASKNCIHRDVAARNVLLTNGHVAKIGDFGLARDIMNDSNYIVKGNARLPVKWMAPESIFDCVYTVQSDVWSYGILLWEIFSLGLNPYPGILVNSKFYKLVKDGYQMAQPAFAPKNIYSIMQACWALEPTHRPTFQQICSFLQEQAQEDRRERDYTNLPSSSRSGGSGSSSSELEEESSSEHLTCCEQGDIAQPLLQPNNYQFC

Structure (SMILES)	pIC50
O=C(Nc1cc(-c2noc([C@H]3C[C@@H]3F)n2)ccc1Cl)c1cnc2ccccn12 [Compound I-341]	≥ 7.30
Cc1ccc(-c2noc([C@H]3CC(F)(F)CN3)n2)cc1NC(=O)c1cnc2ccccn12 [Compound I-359]	6.30 to 7.30
Cc1nc(-c2ccc(C)c(NC(=O)c3cnc4ccccn34)c2)no1 [Compound I-360]	5.30 to 6.30
Cc1ccc(-c2noc(C3CC4(CCC4)C3)n2)cc1NC(=O)c1cnc2ccccn12 [Compound I-367]	≥ 7.30
Cc1ccc(-c2noc(C3CC(OCCF)C3)n2)cc1NC(=O)c1cnc2ccccn12 (stereo not drawn) [Compound I-369]	6.30 to 7.30
Cc1ccc(-c2noc(C3CC(F)C3)n2)cc1NC(=O)c1cnc2ccccn12 (stereo not drawn) [Compound I-381]	≥ 7.30
Cc1ccc(-c2noc([C@H]3C[C@@H]3F)n2)cc1NC(=O)c1cnc2ccc(C#N)cn12 [Compound I-384]	≥ 7.30
Cc1ccc(-c2noc(C3CC(C)(F)C3)n2)cc1NC(=O)c1cnc2ccccn12 (stereo not drawn) [Compound I-387]	≥ 7.30

Biological target: T2, BCRP (BCRP-MDCKII monolayer) (Homo sapiens, UniProt Q9UNQ0)
T2 construct: host or cells: MDCKII (canine kidney) cells
T2 sequence (Q9UNQ0 1-655): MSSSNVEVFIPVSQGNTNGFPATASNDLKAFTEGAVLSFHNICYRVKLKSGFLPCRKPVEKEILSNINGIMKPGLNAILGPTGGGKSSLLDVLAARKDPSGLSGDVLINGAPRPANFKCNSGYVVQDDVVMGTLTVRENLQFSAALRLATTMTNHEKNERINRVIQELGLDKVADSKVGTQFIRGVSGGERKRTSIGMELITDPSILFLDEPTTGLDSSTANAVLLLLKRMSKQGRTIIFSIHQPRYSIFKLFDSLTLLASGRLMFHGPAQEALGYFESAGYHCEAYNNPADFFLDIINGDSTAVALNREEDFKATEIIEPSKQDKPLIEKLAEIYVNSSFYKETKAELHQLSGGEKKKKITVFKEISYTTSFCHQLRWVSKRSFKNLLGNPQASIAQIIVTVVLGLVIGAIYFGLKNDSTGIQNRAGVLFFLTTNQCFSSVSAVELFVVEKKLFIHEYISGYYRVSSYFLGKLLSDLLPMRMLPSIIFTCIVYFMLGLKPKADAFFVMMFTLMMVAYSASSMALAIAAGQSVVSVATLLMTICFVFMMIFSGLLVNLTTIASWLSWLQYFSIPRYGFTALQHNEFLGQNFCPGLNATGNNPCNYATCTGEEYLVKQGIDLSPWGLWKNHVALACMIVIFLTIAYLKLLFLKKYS
Assay: MDCKII-BCRP bidirectional transport assay
Format: in vitro ADME
Conditions: not given
How it was run: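 Efflux ratios were derived from Papp values, alongside recovery, with compounds quantified by LC-MS/MS. Both directions were tested in duplicate across BCRP-MDCKII monolayers used on days 12–15. Incubation ran 120 min at 37° C, 5% CO2, after a 15 min preincubation in assay buffer.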

Structure (SMILES)	MDCK-BCRP: Efflux Ratio
O=C(Nc1cc(-c2noc([C@H]3C[C@@H]3F)n2)ccc1Cl)c1cnc2ccccn12 [Compound I-341]	0.84
Cc1ccc(-c2noc([C@H]3CC(F)(F)CN3)n2)cc1NC(=O)c1cnc2ccccn12 [Compound I-359]	7.14
Cc1nc(-c2ccc(C)c(NC(=O)c3cnc4ccccn34)c2)no1 [Compound I-360]	1.52
Cc1ccc(-c2noc(C3CC4(CCC4)C3)n2)cc1NC(=O)c1cnc2ccccn12 [Compound I-367]	1.18
Cc1ccc(-c2noc(C3CC(OCCF)C3)n2)cc1NC(=O)c1cnc2ccccn12 (stereo not drawn) [Compound I-369]	1.62
Cc1ccc(-c2noc(C3CC(F)C3)n2)cc1NC(=O)c1cnc2ccccn12 (stereo not drawn) [Compound I-381]	1.25
Cc1ccc(-c2noc([C@H]3C[C@@H]3F)n2)cc1NC(=O)c1cnc2ccc(C#N)cn12 [Compound I-384]	12.9
Cc1ccc(-c2noc(C3CC(C)(F)C3)n2)cc1NC(=O)c1cnc2ccccn12 (stereo not drawn) [Compound I-387]	0.82

Same assay, conditions: apical to basolateral

Structure (SMILES)	MDCK-BCRP: Papp A-B
O=C(Nc1cc(-c2noc([C@H]3C[C@@H]3F)n2)ccc1Cl)c1cnc2ccccn12 [Compound I-341]	10.1 10^−6 cm/s
Cc1ccc(-c2noc([C@H]3CC(F)(F)CN3)n2)cc1NC(=O)c1cnc2ccccn12 [Compound I-359]	4.68 10^−6 cm/s
Cc1nc(-c2ccc(C)c(NC(=O)c3cnc4ccccn34)c2)no1 [Compound I-360]	9.54 10^−6 cm/s
Cc1ccc(-c2noc(C3CC4(CCC4)C3)n2)cc1NC(=O)c1cnc2ccccn12 [Compound I-367]	0.83 10^−6 cm/s
Cc1ccc(-c2noc(C3CC(OCCF)C3)n2)cc1NC(=O)c1cnc2ccccn12 (stereo not drawn) [Compound I-369]	8.93 10^−6 cm/s
Cc1ccc(-c2noc(C3CC(F)C3)n2)cc1NC(=O)c1cnc2ccccn12 (stereo not drawn) [Compound I-381]	10.1 10^−6 cm/s
Cc1ccc(-c2noc([C@H]3C[C@@H]3F)n2)cc1NC(=O)c1cnc2ccc(C#N)cn12 [Compound I-384]	0.59 10^−6 cm/s
Cc1ccc(-c2noc(C3CC(C)(F)C3)n2)cc1NC(=O)c1cnc2ccccn12 (stereo not drawn) [Compound I-387]	13.8 10^−6 cm/s

Test system: not listed separately
Assay: Kinetic solubility assay
Format: physicochemical
Conditions: kinetic solubility, 50 mM PB (pH 7.4), shaken 24 hours at RT
How it was run: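 Concentration in the filtrate was determined by UPLC-UV or HPLC-UV with a standard curve. Before that, compound (10 mM DMSO stock) in 50 mM PB at pH 7.4 was agitated 24 h at room temperature, then PTFE-filtered with centrifugation.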

Structure (SMILES)	Solubility (μM)
O=C(Nc1cc(-c2noc([C@H]3C[C@@H]3F)n2)ccc1Cl)c1cnc2ccccn12 [Compound I-341]	**** (a solubility less than or equal to 2 μM)
Cc1ccc(-c2noc([C@H]3CC(F)(F)CN3)n2)cc1NC(=O)c1cnc2ccccn12 [Compound I-359]	* (a solubility greater than 50 μM)
Cc1nc(-c2ccc(C)c(NC(=O)c3cnc4ccccn34)c2)no1 [Compound I-360]	** (a solubility greater than 10 μM and less than or equal to 50 μM)
Cc1ccc(-c2noc(C3CC4(CCC4)C3)n2)cc1NC(=O)c1cnc2ccccn12 [Compound I-367]	**** (a solubility less than or equal to 2 μM)
Cc1ccc(-c2noc(C3CC(OCCF)C3)n2)cc1NC(=O)c1cnc2ccccn12 (stereo not drawn) [Compound I-369]	** (a solubility greater than 10 μM and less than or equal to 50 μM)
Cc1ccc(-c2noc(C3CC(F)C3)n2)cc1NC(=O)c1cnc2ccccn12 (stereo not drawn) [Compound I-381]	**** (a solubility less than or equal to 2 μM)
Cc1ccc(-c2noc([C@H]3C[C@@H]3F)n2)cc1NC(=O)c1cnc2ccc(C#N)cn12 [Compound I-384]	**** (a solubility less than or equal to 2 μM)
Cc1ccc(-c2noc(C3CC(C)(F)C3)n2)cc1NC(=O)c1cnc2ccccn12 (stereo not drawn) [Compound I-387]	*** (a solubility greater than 2 μM and less than or equal to 10 μM)

Biological target: T3, PDGFRα (Homo sapiens, UniProt P16234)
T3 construct: purchased Millipore 14-467 (lot 26321_ACTI)
T3 sequence (P16234 24-1089): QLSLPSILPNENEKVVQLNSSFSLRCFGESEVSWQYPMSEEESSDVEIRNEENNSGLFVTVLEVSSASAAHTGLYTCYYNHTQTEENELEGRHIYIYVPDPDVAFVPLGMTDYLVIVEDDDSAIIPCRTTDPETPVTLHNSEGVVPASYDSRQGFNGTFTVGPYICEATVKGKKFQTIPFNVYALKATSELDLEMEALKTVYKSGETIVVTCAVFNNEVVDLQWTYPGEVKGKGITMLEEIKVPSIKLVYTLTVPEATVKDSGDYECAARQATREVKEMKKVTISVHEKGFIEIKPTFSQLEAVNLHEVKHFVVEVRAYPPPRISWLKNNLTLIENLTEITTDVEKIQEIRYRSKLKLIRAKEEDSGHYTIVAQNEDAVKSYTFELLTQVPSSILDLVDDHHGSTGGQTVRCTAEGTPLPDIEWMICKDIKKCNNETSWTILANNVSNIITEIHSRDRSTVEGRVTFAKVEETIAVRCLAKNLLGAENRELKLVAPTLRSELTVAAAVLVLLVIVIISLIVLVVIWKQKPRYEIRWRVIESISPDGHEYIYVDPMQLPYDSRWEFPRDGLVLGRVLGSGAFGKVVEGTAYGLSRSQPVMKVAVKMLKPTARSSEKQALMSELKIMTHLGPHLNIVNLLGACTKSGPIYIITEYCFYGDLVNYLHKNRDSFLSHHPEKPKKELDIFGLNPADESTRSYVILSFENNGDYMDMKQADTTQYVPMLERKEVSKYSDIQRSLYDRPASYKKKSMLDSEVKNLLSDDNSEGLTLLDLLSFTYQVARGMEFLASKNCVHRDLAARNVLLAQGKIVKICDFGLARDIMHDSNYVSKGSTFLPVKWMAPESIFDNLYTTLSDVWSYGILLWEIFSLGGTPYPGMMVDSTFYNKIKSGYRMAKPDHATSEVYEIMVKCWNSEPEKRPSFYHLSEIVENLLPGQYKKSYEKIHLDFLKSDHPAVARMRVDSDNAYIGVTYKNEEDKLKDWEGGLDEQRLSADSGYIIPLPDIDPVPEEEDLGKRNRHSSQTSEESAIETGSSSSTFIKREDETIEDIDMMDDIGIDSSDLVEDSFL
Assay: Caliper biochemical assay, PDGFRα
Conditions: Table 6
How it was run: as §1

Structure (SMILES)	pIC50
O=C(Nc1cc(-c2noc([C@H]3C[C@@H]3F)n2)ccc1Cl)c1cnc2ccccn12 [Compound I-341]	6.30 to 7.30
Cc1ccc(-c2noc([C@H]3CC(F)(F)CN3)n2)cc1NC(=O)c1cnc2ccccn12 [Compound I-359]	5.30 to 6.30
Cc1nc(-c2ccc(C)c(NC(=O)c3cnc4ccccn34)c2)no1 [Compound I-360]	5.30 to 6.30
Cc1ccc(-c2noc(C3CC4(CCC4)C3)n2)cc1NC(=O)c1cnc2ccccn12 [Compound I-367]	≥ 7.30
Cc1ccc(-c2noc(C3CC(OCCF)C3)n2)cc1NC(=O)c1cnc2ccccn12 (stereo not drawn) [Compound I-369]	5.30 to 6.30
Cc1ccc(-c2noc(C3CC(F)C3)n2)cc1NC(=O)c1cnc2ccccn12 (stereo not drawn) [Compound I-381]	6.30 to 7.30
Cc1ccc(-c2noc([C@H]3C[C@@H]3F)n2)cc1NC(=O)c1cnc2ccc(C#N)cn12 [Compound I-384]	4.52 to 5.30
Cc1ccc(-c2noc(C3CC(C)(F)C3)n2)cc1NC(=O)c1cnc2ccccn12 (stereo not drawn) [Compound I-387]	6.30 to 7.30

Biological target: T4, wtKIT (Homo sapiens, UniProt P10721)
T4 construct: 1888289AM in the reaction mixtures
T4 sequence (P10721 26-976): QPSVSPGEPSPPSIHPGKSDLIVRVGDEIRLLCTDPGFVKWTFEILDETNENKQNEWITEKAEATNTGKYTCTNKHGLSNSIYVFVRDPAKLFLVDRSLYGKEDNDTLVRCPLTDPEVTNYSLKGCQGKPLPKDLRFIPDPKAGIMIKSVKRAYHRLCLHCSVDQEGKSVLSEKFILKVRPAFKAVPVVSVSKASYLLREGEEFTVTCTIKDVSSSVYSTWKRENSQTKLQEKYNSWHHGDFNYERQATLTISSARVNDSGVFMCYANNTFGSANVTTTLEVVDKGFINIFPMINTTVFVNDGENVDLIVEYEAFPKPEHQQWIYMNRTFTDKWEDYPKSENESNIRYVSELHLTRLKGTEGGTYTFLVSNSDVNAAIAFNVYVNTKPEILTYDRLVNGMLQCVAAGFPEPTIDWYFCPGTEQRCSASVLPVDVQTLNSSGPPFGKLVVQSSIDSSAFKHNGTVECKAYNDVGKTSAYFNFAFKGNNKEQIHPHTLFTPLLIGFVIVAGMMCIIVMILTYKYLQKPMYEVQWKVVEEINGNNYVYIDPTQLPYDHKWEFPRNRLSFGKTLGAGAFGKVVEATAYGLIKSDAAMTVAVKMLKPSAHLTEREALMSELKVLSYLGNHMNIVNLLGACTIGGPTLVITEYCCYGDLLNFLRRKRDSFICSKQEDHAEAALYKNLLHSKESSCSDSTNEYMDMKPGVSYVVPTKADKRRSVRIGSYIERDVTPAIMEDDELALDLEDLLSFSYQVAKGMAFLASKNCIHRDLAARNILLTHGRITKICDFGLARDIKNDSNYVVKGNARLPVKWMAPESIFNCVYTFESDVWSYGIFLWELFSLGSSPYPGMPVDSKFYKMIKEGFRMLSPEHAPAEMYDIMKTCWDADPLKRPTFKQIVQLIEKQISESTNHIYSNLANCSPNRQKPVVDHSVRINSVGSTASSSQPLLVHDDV
Assay: Caliper biochemical assay, wtKIT
Conditions: Table 6, read-out: KIT Biochemical IC50 avg
How it was run: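 Mobility-shift read-out: after EDTA stop, fluorescent peptide substrate and product resolved electrophoretically on LabChip 3000. Reaction ran 3 h at 25° C with 400 μM ATP, Mn^2+ cofactor, 5.0 nM wtKIT, 1 μM FAM-peptide, pH 7.5 HEPES buffer; no-enzyme wells defined full inhibition.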

Structure (SMILES)	pIC50
O=C(Nc1cc(-c2noc([C@H]3C[C@@H]3F)n2)ccc1Cl)c1cnc2ccccn12 [Compound I-341]	≥ 7.30
Cc1ccc(-c2noc([C@H]3CC(F)(F)CN3)n2)cc1NC(=O)c1cnc2ccccn12 [Compound I-359]	≥ 7.30
Cc1nc(-c2ccc(C)c(NC(=O)c3cnc4ccccn34)c2)no1 [Compound I-360]	≥ 7.30
Cc1ccc(-c2noc(C3CC4(CCC4)C3)n2)cc1NC(=O)c1cnc2ccccn12 [Compound I-367]	≥ 7.30
Cc1ccc(-c2noc(C3CC(OCCF)C3)n2)cc1NC(=O)c1cnc2ccccn12 (stereo not drawn) [Compound I-369]	≥ 7.30
Cc1ccc(-c2noc(C3CC(F)C3)n2)cc1NC(=O)c1cnc2ccccn12 (stereo not drawn) [Compound I-381]	≥ 7.30
Cc1ccc(-c2noc([C@H]3C[C@@H]3F)n2)cc1NC(=O)c1cnc2ccc(C#N)cn12 [Compound I-384]	≥ 7.30
Cc1ccc(-c2noc(C3CC(C)(F)C3)n2)cc1NC(=O)c1cnc2ccccn12 (stereo not drawn) [Compound I-387]	≥ 7.30
